Values quoted from earlier work as cited in patent US20040096453A1, “Methods and compositions to treat glycosaminoglycan-associated molecular interactions” (Neurochem (International) Limited, priority 1998, published 2004).

Test system: two streptococcal proteins (9,15 Kda)
Details: basement membranes of cardiac muscle and renal tissues; Bergey & Stenson

heparin
inhibition of binding of streptococcal proteins to basement membranes: completely inhibited
